# Assay results published in US20220348565A1, “PHARMACEUTICAL COMPOUNDS” (SENTINEL ONCOLOGY LIMITED, priority 2019, published 2022).
# Tests used:
# [1] = tested on: U87-Luc cells; assay: U87-Luc orthotopic xenograft model; format: in vivo, male athymic nude mice; conditions: oral 100 mg/kg on days 1, 4, 7, 10 and 13; Day 15
# Experimental: U87-Luc cells were intracerebrally implanted into the brains of male athymic nude mice and tumour growth was monitored by bioluminescent signal. In the treatment group animals were given an oral dose of 100 mg/kg of atropisomer A-2 on days 1, 4, 7, 10 and 13. The control group animals were given vehicle only.
# [2] = tested on: U87MG tumours; assay: U87MG subcutaneous xenograft model; format: in vivo, Male athymic nude mice; conditions: oral 100 mg/kg on days 1, 4 and 7; day 13
# Experimental: (§1) Male athymic nude mice bearing U87MG tumours were given an oral dose of 100 mg/kg of atropisomer A-2 on days 1, 4 and 7 and the tumour volumes were measured over 20 days. Tumour volumes in a control group of tumour-bearing mice, who had received vehicle only at the same time points were also measured.
# [3] = tested on: HeLa cells stably expressing a Centrin1-GFP fusion protein; assay: Centriole number in Centrin1-GFP HeLa cells; format: cell-based; conditions: 0.02 μM, 72 hours
# Experimental: The effects of A-1 and A-2 on centrosome function were therefore investigated further. HeLa cells stably expressing a Centrin1-GFP fusion protein were seeded into 96-well plates overnight. Cells were treated with atropisomer A-1 or atropisomer A-2 (at concentrations of 0.02 μM in DMSO) or DMSO control for 72 hours and then imaged using a fluorescence microscope. Multiple cell fields were captured for each treatment condition, and the images were subsequently analysed manually. Centrin1-GFP specifically marks centrioles as discrete foci, and therefore can be used to quantitate centriole number per cell. Thus, for each treatment condition, 100 cells were analysed and the number of centrioles present in each cell was recorded. The data were then separated into bins (no centrioles, 1 centriole, 2 centrioles, and greater than 2 centrioles) and are shown in FIG. 11.
# [4] = tested on: U87MG cells; assay: Mitotic phenotype study in U87MG cells; format: cell-based, human; conditions: 0.03 μM, listed as A-2
# Experimental: Distinct mitotic phenotypes are induced following inhibition of PLK1 and PLK4 in cells. […] Centriole assembly is controlled by PLK4, with inhibitors inducing a multipolar spindle phenotype due to centrosome defects which results in abnormal cyokinesis (Wong et al., 2015. Science 348(6239); 1155-1160). Cells were plated at 10 000/well in 96-well plates and incubated overnight. The following day atropisomer A-2 stocks in DMSO were diluted in medium then added to cells with a maximum final DMSO concentration on cells of 0.2%. Cells were incubated with the compound for 24 hours then fixed in 3.7% formaldehyde. Cells were permeabilised with 0.1% Triton X-100 then incubated with anti-phospho-histone H3 (Ser10) antibody (Abcam). The cells were washed with PBS then incubated with AlexaFluor 488 labelled goat anti-rabbit IgG (Invitrogen) in the presence of 4 ug/mL Hoechst 33342 (Invitrogen). Cells were washed in PBS then imaged on an Arrayscan VTi HCS instrument using the Target Activation V4 Bioapplication. A user-defined threshold was applied to identify mitotic cells based on the intensity of phospho-histone H3 staining. In a separate study, following the above protocol and using single compound concentrations of 0.03 μM for each of atropisomer A-1 and atropisomer A-2, the frequency of observed mitotic phenotypes in U87MG cells was manually assessed and classified into the following phenotypes: non-congressed chromosomes, multipolar spindles/abnormal cytokinesis, monopolar spindles, normal prometaphase, normal metaphase for each of A-1 and A-2.
# [5] = tested on: panel of 48 cancer-derived cell lines; assay: Proliferation assay on diverse cancer cell line panel, CellTiter-Glo, 72 hours; format: cell-based; conditions: for IC50: 72 hours, listed as A-2
# Experimental: Screening against diverse cancer cell lines was performed to identify tumour types displaying sensitivity to atropisomers A-1 and A-2. A panel of 48 cancer-derived cell lines was screened in a high-throughput proliferation assay using dilutions of atropisomers A-1/A-2. Cell lines that were screened included those representing cancer of the pancreas, large intestine/colorectum, lung, brain and nerves, and lymphoma and leukaemia cell lines. Cell lines were treated with serial half-log dilutions of compound and assayed 72 hours later for proliferation using CellTiter-Glo Assay (Promega). IC50 values were calculated by fitting the dose-response data using a nonlinear regression model.
# [6] = tested on: HCT116 xenograft tumours; assay: HCT116 subcutaneous xenograft model; format: in vivo, Male athymic nude mice; conditions: oral 100 mg/kg on days 1, 8 and 15; day 20
# Experimental: as §1, with “HCT116 xenograft” for “U87MG”, “give” for “given”, “mg/kg” for “mg/kg of”, “8” for “4”, “15” for “7”, “3 weeks.” for “20 days.”
smiles,measurement,setting,value
"CN(C)CCNC(=O)c1ccc(-c2ccc(-c3ccc(Cl)cc3)n2-c2ccccc2C(F)(F)F)cc1 (single isomer, unassigned) [Atropisomer A-2, 4-[5-(4-chlorophenyl)-1-[2-(trifluoromethyl)phenyl]pyrrol-2-yl]-N-[2-(dimethylamino)ethyl]benzamide]",tumour bioluminescent signal treated versus control,[1],decrease in tumour signal
same,tumour volume % T/C,[2],3.85%
same,PLK4 inhibition phenotypes (centriole number),[3],exhibits evidence of PLK4 inhibition phenotypes
same,cells with abnormal cytokinesis,[4],70%
same,cells with non-congressed chromosomes,[4],13%
same,cells with normal mitotic phenotype,[4],17%
same,IC50,"[5]; HOT 116, Large intestine/Colorectum",230 nM
same,IC50,"[5]; ML-2, Blood/Leukaemia",180 nM
same,IC50,"[5]; SVV620, Large intestine/Colorectum",190 nM
same,cell growth inhibition compared with atropisomer A-1,[5]; all of the cell lines of the panel,significantly more active
same,TGI,[6],60%
